Molecules are shown by their SMILES.

In the test the target is hA2a/CHO (Homo sapiens (Human), UniProt P29274). As to the kind of experiment: cAMP inhibition assay in hA2a/CHO cells, 10 μM adenosine.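 Further: compounds added to cells 30 min ahead of adenosine, then a further 30 min at 37 °C with adenosine before cAMP detection.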 In kind it is cell-based. The conditions noted are these: read-out: cAMP & FLIPR IC50 (nM) hA2a.
Chain of hA2a/CHO (P29274 whole entry): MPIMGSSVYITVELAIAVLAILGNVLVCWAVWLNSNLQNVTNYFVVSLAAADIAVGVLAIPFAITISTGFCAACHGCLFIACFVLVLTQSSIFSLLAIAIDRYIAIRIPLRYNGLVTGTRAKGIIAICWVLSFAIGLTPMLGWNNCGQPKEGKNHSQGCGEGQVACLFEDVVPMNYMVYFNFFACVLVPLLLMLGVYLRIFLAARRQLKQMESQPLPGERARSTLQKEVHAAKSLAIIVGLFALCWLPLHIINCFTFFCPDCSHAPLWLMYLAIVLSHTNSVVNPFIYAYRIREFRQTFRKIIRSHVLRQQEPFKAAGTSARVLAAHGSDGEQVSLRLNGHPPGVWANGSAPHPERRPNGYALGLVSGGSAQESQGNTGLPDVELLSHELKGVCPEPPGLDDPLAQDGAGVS
Description: hA2a/CHO, hA2b/CHO, hA3/CHO and mA2a/CHO (Genscript) were plated at 5×10^3 cells/well into 384-well polystyrene plates at the day of experiment. Compounds were pre-incubated with cells for 30 min at 37° C., 5% CO2. Then 10 μM adenosine was added to the cells and incubated for 30 min at 37° C., 5% CO2. Detection reagent (CISBIO) was added and the plates were incubated for 60 min at room temperature. The signal was captured by Envision.
Usually IC50 stands for the point on the concentration scale where inhibition reaches its midpoint. Consider `Cc1cnc2ccc(-c3nc(C(=O)NCC4OCC4(C)C)c(N)nc3-c3ncco3)cn12` (single isomer, unassigned; isomer 2) [Example 289, 3-amino-N-((3,3-dimethyloxetan-2-yl)methyl)-6-(3-methylimidazo[1,2-a]pyridin-6-yl)-5-(oxazol-2-yl)pyrazine-2-carboxamide (isomer 2)], for which the IC50 came to 1.9 nM.
For the compound `Cc1cnc2ccc(-c3nc(C(=O)NCc4cccc(N5C[C@H]6C[C@@H]5CN6C)n4)c(N)nc3-c3ncco3)cn12` [Example 282, 3-amino-N-((6-((1R,4R)-5-methyl-2,5-diazabicyclo[2.2.1]heptan-2-yl)pyridin-2-yl)methyl)-6-(3-methylimidazo[1,2-a]pyridin-6-yl)-5-(oxazol-2-yl) pyrazine-2-carboxamide], the half-inhibitory concentration (IC50) was 4.5 nM.
The value for `Cc1cnc2ccc(-c3nc(C(=O)NCc4cccc(N5CC6(CN(C)C6)C5)n4)c(N)nc3-c3ncco3)cn12` [Example 284, 3-amino-N-[(6-[6-methyl-2,6-diazaspiro[3.3]heptan-2-yl]pyridin-2-yl)methyl]-6-[3-methylimidazo[1,2-a]pyridin-6-yl]-5-(1,3-oxazol-2-yl)pyrazine-2-carboxamide] was 0.7 nM; that for `Cc1cnc2ccc(-c3nc(C(=O)NCc4cccc(N5C[C@@H]6C[C@H]5CN6C)n4)c(N)nc3-c3ncco3)cn12` [Example 283, 3-amino-N-((6-((lS,4S)-5-methyl-2,5-diazabicyclo[2.2.1]heptan-2-yl)pyridin-2-yl)methyl)-6-(3-methylimidazo[1,2-a]pyridin-6-yl)-5-(oxazol-2-yl)pyrazine-2-carboxamide] was 3.4 nM.
As for `Cc1cnc2ccc(-c3nc(CNC(=O)[C@H]4CCCN4C)c(N)nc3-n3nccn3)cn12` [Example 290, (2R)—N-[(3-amino-6-[3-methylimidazo[1,2-a]pyridin-6-yl]-5-(2H-1,2,3-triazol-2-yl)pyrazin-2-yl)methyl]-1-methylpyrrolidine-2-carboxamide], the IC50 was determined as 5.8 nM.
`CNCCOc1cccnc1CNC(=O)c1nc(-c2ccc3ncc(C)n3c2)c(-c2ncco2)nc1N` [Example 301, 3-amino-N-([3-[2-(methylamino)ethoxy]pyridin-2-yl]methyl)-6-[3-methylimidazo[1,2-a]pyridin-6-yl]-5-(1,3-oxazol-2-yl)pyrazine-2-carboxamide]: the IC50 was 3 nM.
In the case of `Cc1cnc2ccc(-c3nc(C(=O)NCc4cccc(N5CCN(C)[C@H](C)C5)n4)c(N)nc3-c3ncco3)cn12` [Example 285, 3-amino-N-([6-[(3R)-3,4-dimethylpiperazin-1-yl]pyridin-2-yl]methyl)-6-[3-methylimidazo[1,2-a]pyridin-6-yl]-5-(1,3-oxazol-2-yl)pyrazine-2-carboxamide] it was 4.5 nM; in that of `Cc1cnc2ccc(-c3nc(C(=O)N[C@H](C)Cn4nccn4)c(N)nc3-c3ncco3)cn12` [Example 298, 3-amino-6-[3-methylimidazo[1,2-a]pyridin-6-yl]-5-(1,3-oxazol-2-yl)-N-[(2R)-1-(2H-1,2,3-triazol-2-yl)propan-2-yl]pyrazine-2-carboxamide], 47 nM; in that of `COC1CCCC(NC(=O)c2nc(-c3ccc4ncc(C)n4c3)c(-c3ncco3)nc2N)C1` (single isomer, unassigned; isomer 1) [Example 292, 3-amino-N-(3-methoxycyclohexyl)-6-(3-methylimidazo[1,2-a]pyridin-6-yl)-5-(oxazol-2-yl)pyrazine-2-carboxamide (isomer 1)], 0.4 nM.
Consider `COC1CCCC(NC(=O)c2nc(-c3ccc4ncc(C)n4c3)c(-c3ncco3)nc2N)C1` (single isomer, unassigned; isomer 3) [Example 294, 3-amino-N-(3-methoxycyclohexyl)-6-(3-methylimidazo[1,2-a]pyridin-6-yl)-5-(oxazol-2-yl)pyrazine-2-carboxamide (isomer 3)], for which the IC50 amounted to 0.2 nM.
As to `Cc1cnc2ccc(-c3nc(C(=O)NCC4CCOC4)c(N)nc3-c3ccccn3)cn12` (single isomer, unassigned) [Example 304, 3-amino-6-[3-methylimidazo[1,2-a]pyridin-6-yl]-N-[[oxolan-3-yl]methyl]-5-(pyridin-2-yl)pyrazine-2-carboxamide], the IC50 came out at 8.2 nM.
Take `Cc1cnc2ccc(-c3nc(C(=O)NCc4cccc(N5CCC(N(C)C)CC5)n4)c(N)nc3-c3ncco3)cn12` [Example 302, 3-amino-N-((6-(4-(dimethylamino)piperidin-1-yl)pyridin-2-yl)methyl)-6-(3-methylimidazo[1,2-a]pyridin-6-yl)-5-(oxazol-2-yl)pyrazine-2-carboxamide]: the IC50 was 2.4 nM.
For the compound `COC1CCOC1CNC(=O)c1nc(-c2ccc3ncc(C)n3c2)c(-c2ncco2)nc1N` (single isomer, unassigned) [Example 279, 3-amino-N-((3-methoxytetrahydrofuran-2-yl)methyl)-6-(3-methylimidazo[1,2-a]pyridin-6-yl)-5-(oxazol-2-yl)pyrazine-2-carboxamide], the 50% inhibitory concentration (IC50) stood at 1.4 nM.
For the compound `Cc1cnc2ccc(-c3nc(C(=O)N[C@@H](C)Cn4ccnn4)c(N)nc3-c3ncco3)cn12` [Example 296, (S)-N-(1-(lH-1,2,3-triazol-1-yl)propan-2-yl)-3-amino-6-(3-methylimidazo[1,2-a]pyridin-6-yl)-5-(oxazol-2-yl) pyrazine-2-carboxamide], the half-maximal inhibitory concentration (IC50) worked out at 0.9 nM.
With `Cc1cnc2ccc(-c3nc(C(=O)NC[C@H]4CCCN4C)c(N)nc3-c3cccc(F)c3)cn12` [Cmpd. 231, (R)-3-amino-5-(3-fluorophenyl)-6-(3-methylimidazo[1,2-a]pyridin-6-yl)-N-((1-methylpyrrolidin-2-yl)methyl)pyrazine-2-carboxamide], the half-inhibitory concentration (IC50) worked out at 6.2 nM.
In the case of `Cc1cnc2ccc(-c3nc(C(=O)NCc4ncccc4OCCO)c(N)nc3-c3ncco3)cn12` [Example 300, 3-amino-N-((3-(2-hydroxyethoxy)pyridin-2-yl)methyl)-6-(3-methylimidazo [1,2-a]pyridin-6-yl)-5-(oxazol-2-yl) pyrazine-2-carboxamide] it was 0.8 nM; in that of `COC1CCCC(NC(=O)c2nc(-c3ccc4ncc(C)n4c3)c(-c3ncco3)nc2N)C1` (single isomer, unassigned; isomer 2) [Example 293, 3-amino-N-(3-methoxycyclohexyl)-6-(3-methylimidazo[1,2-a]pyridin-6-yl)-5-(oxazol-2-yl)pyrazine-2-carboxamide (isomer 2)], 0.4 nM; in that of `Cc1cnc2ccc(-c3nc(C(=O)NCc4cccc(N5CCN(C)C[C@@H]5C)n4)c(N)nc3-c3ncco3)cn12` [Example 287-2, (S)-3-amino-N-((6-(2,4-dimethylpiperazin-1-yl)pyridin-2-yl)methyl)-6-(3-methylimidazo[1,2-a]pyridin-6-yl)-5-(oxazol-2-yl)pyrazine-2-carboxamide], 4.4 nM.
Turning to `Cc1cnc2ccc(-c3nc(C(=O)NCc4cccc(N5[C@@H]6CC[C@H]5CN(C)C6)n4)c(N)nc3-c3ncco3)cn12` [Cmpd. 172, 3-amino-N-[(6-[3-methyl-3,8-diazabicyclo[3.2.1]octan-8-yl]pyridin-2-yl)methyl]-6-[3-methylimidazo[1,2-a]pyridin-6-yl]-5-(1,3-oxazol-2-yl)pyrazine-2-carboxamide], the IC50 turned out to be 5.1 nM.
On to `Cc1cnc2ccc(-c3nc(C(=O)NC[C@H]4CCCN4C)c(N)nc3-c3ccccc3)cn12` [Cmpd. 259, 3-amino-6-[3-methylimidazo[1,2-a]pyridin-6-yl]-N-[[(2R)-1-methylpyrrolidin-2-yl]methyl]-5-phenylpyrazine-2-carboxamide], for which the IC50 amounted to 3.7 nM.
For the compound `Cc1cnc2ccc(-c3nc(C(=O)NCC4CCOC4)c(N)nc3-c3ccccn3)cn12` (single isomer, unassigned) [Example 305, 3-amino-6-[3-methylimidazo[1,2-a]pyridin-6-yl]-N-[[oxolan-3-yl]methyl]-5-(pyridin-2-yl)pyrazine-2-carboxamide], the half-inhibitory concentration (IC50) turned out to be 12 nM.
On to `COCCCNC(=O)c1nc(-c2ccc3ncc(C)n3c2)c(-n2nccn2)nc1N` [Example 299, 3-amino-N-(3-methoxypropyl)-6-(3-methylimidazo[1,2-a]pyridin-6-yl)-5-(2H-1,2,3-triazol-2-yl)pyrazine-2-carboxamide], for which the IC50 was 4.9 nM.
For `Cc1cnc2ccc(-c3nc(C(=O)NCc4cccc(N5CCN(C)[C@@H](C)C5)n4)c(N)nc3-c3ncco3)cn12` [Example 286, (S)-3-amino-N-((6-(3,4-dimethylpiperazin-1-yl)pyridin-2-yl)methyl)-6-(3-methylimidazo[1,2-a]pyridin-6-yl)-5-(oxazol-2-yl)pyrazine-2-carboxamide], the IC50 amounted to 3.2 nM.
In the case of `Cc1cnc2ccc(-c3nc(C(=O)N[C@@H](C)Cn4nccn4)c(N)nc3-c3ncco3)cn12` [Example 297, 3-amino-6-[3-methylimidazo[1,2-a]pyridin-6-yl]-5-(1,3-oxazol-2-yl)-N-[(2S)-1-(2H-1,2,3-triazol-2-yl)propan-2-yl]pyrazine-2-carboxamide] it was 0.2 nM.
Turning to `Cc1cnc2ccc(-c3nc(C(=O)NCC4CCCOC4)c(N)nc3-c3ncco3)cn12` (single isomer, unassigned; isomer 2) [Example 168, 3-amino-6-(3-methylimidazo[1,2-a]pyridin-6-yl)-5-(oxazol-2-yl)-N-((tetrahydro-2H-pyran-3-yl)methyl) pyrazine-2-carboxamide (isomer 2)], the IC50 is 1.1 nM.
As to `COC1CCOC1CNC(=O)c1nc(-c2ccc3ncc(C)n3c2)c(-c2ncco2)nc1N` (single isomer, unassigned) [Example 280, 3-amino-N-((3-methoxytetrahydrofuran-2-yl)methyl)-6-(3-methylimidazo[1,2-a]pyridin-6-yl)-5-(oxazol-2-yl)pyrazine-2-carboxamide], the IC50 amounted to 0.6 nM.
As to `Cc1cnc2ccc(-c3nc(C(=O)NCC4CCCOC4)c(N)nc3-c3ncco3)cn12` (single isomer, unassigned; isomer 1) [Example 167, 3-amino-6-(3-methylimidazo[1,2-a]pyridin-6-yl)-5-(oxazol-2-yl)-N-((tetrahydro-2H-pyran-3-yl)methyl)pyrazine-2-carboxamide (isomer 1)], the concentration for half-maximal inhibition (IC50) came to 1.2 nM.

The values above are taken from patent US10898481B2 (priority 2018, dated 2021).
